Entries after “also recorded” stand apart in the source; their conditions may differ.
B1: TGFβ3: exogenous factor (transforming growth factor) tested in the 3D collagen gel migration assay (protein, UniProt P10600 301-412, looked up)
Transforming growth factor …: ALDTNYCFRNLEENCCVRPLYIDFRQDLGWKWVHEPKGYYANFCSGPCPYLRSADTTHSTVLGLYNTLNPEASASPCCVPQDLEPLTILYYVGRTPKVEQLSNMVVKSCKCS
B2: periostin: Full length recombinant mouse periostin (a.k.a. OSF-2) purchased from R&D systems; secreted 90 kDa matricellular protein (protein, UniProt Q62009 1-838, looked up)
chain: MVPLLPLYALLLLFLCDINPANANSYYDKVLAHSRIRGRDQGPNVCALQQILGTKKKYFSSCKNWYQGAICGKKTTVLYECCPGYMRMEGMKGCPAVMPIDHVYGTLGIVGATTTQHYSDVSKLREEIEGKGSYTYFAPSNEAWENLDSDIRRGLENNVNVELLNALHSHMVNKRMLTKDLKHGMVIPSMYNNLGLFINHYPNGVVTVNCARVIHGNQIATNGVVHVIDRVLTQIGTSIQDFLEAEDDLSSFRAAAITSDLLESLGRDGHFTLFAPTNEAFEKLPRGVLERIMGDKVASEALMKYHILNTLQCSEAITGGAVFETMEGNTIEIGCEGDSISINGIKMVNKKDIVTKNGVIHLIDEVLIPDSAKQVIELAGKQQTTFTDLVAQLGLASSLKPDGEYTLLAPVNNAFSDDTLSMDQRLLKLILQNHILKVKVGLSDLYNGQILETIGGKQLRVFVYRTAICIENSCMVRGSKQGRNGAIHIFREIIQPAEKSLHDKLRQDKRFSIFLSLLEAADLKDLLTQPGDWTLFAPTNDAFKGMTSEERELLIGDKNALQNIILYHLTPGVYIGKGFEPGVTNILKTTQGSKIYLKGVNETLLVNELKSKESDIMTTNGVIHVVDKLLYPADIPVGNDQLLELLNKLIKYIQIKFVRGSTFKEIPMTVYTTKIITKVVEPKIKVIQGSLQPIIKTEGPAMTKIQIEGDPDFRLIKEGETVTEVIHGEPVIKKYTKIIDGVPVEITEKQTREERIITGPEIKYTRISTGGGETGETLQKFLQKEVSKVTKFIEGGDGHLFEDEEIKRLLQGDTPAKKIPANKRVQGPRRRSREGRSQ
modifications: full-length
notes: Full length recombinant mouse periostin (a.k.a. OSF-2) purchased from R&D systems; secreted 90 kDa matricellular protein

Legend:
[1] = tested on: ROS cell line; experiment: Cell adhesion assay, ROS cell line; type: cell-based, rat; conditions: assayed in triplicate, 1% BSA negative control
Experimental: FIGS. 16A-B Cell adhesion assays. (A) Each of the 55 peptides (20 mers) of periostin was assayed in triplicate by a cell adhesion assay using the ROS cell line. Collagen I and poly-L-lysine were used as positive controls, whereas 1% BSA coated wells were negative controls for non-specific binding. […] These subtle differences may be attributed to different integrin profiles of the two cell types.
The 55 peptides in Table 1 have been studied in a cell adhesion assay using the ROS cell line.
These assays will be performed as described. Briefly, titrated amounts of purified matrix protein (or peptides or fragments) ranging from 10 ng/ml to 100 μg/ml will be used to coat the wells of a 96-well dish. Poly-L-lysine (1.5 μg/ml) and 1% BSA will be used as positive and negative controls for adhesion, respectively. The wells are blocked with 1% BSA to coat any of the charged plastic surface not coated by the substrates. Finally the cells are allowed to adhere to the substrates at 37° C. for 1-2 hours depending on cell type. The cells are then gently washed to remove those that are not adherent and retain those that are adherent. Then the cells remaining are exposed to 4% PFA to fix them and they are subsequently stained with 0.25% crystal violet for 30 min. Plates are washed and air-dried. At this point the cells can be visualized and images digitally captured. The amount of stain on the cells is solubilized by 2% sodium deoxycholate for 10 min. and absorbance is measured at 540 nm wavelength. This gives quantitative data directly related to the number of adherent cells. Another assessment can be done by digitally capturing the cells in each well and analyzing their spreading by morphometric analysis.

[2] = tested on: primary fibroblasts; experiment: 3D collagen gel migration assay with hanging drop aggregates; type: cell-based; conditions: aggregates of 50,000 cells/20 μl on collagen I hydrogels (1.5 mg/ml), exogenous factors
Source text: FIG. 11 Periostin promotes migration of primary fibroblasts in 3D collagen gel assays. […] Pictures above the graph lines show representative images of the stimulated cultures with the cell migratory boundaries outlined.
The 3-D migration and invasion assay will use the same cells but aggregate them using a hanging drop method overnight. […] The number of cells that have migrated out from the aggregate and the distance migrated on the top of the gel are the first order parameters of migration.

[3] = tested on: Mesenchyme from periostin null mice; experiment: Hanging drop culture of periostin null mesenchyme, collagen expression by immunoblotting; type: cell-based, mouse; conditions: purified periostin protein 10 μg/ml in culture medium, 7 days
Experimental: FIGS. 3A-B Periostin regulates collagen synthesis. Mesenchyme from periostin null mice was placed in hanging drop cultures and incubated with either purified periostin protein (10 μg/ml) or PBS. Mesenchyme from wild-type mice was used as control tissue. After 7 days, tissues were harvested and analyzed for periostin and collagen expression by immunoblotting. […] Actin is used for protein normalization. (B) Graphical representation of Western analyses presented in panel A obtained from densitometric analyses using NIH image software. Values obtained were compared against wild-type values (baseline) and represented as relative percent change. * denotes p<0.05.
Studies were carried out to examine the affect of periostin on fibroblast differentiation. Through these studies, it was ascertained that periostin was a crucial regulator of collagen I synthesis and maturation (fibrillogenesis) and promoted fibroblast differentiation (FIGS. 3A-B). […] Within the bone, expression of these matrix components was seen primarily in the periosteal cells. To ascertain the functional significance of periostin on bone growth, gene targeted mice were generated. These mice are viable and able to reproduce. However, significant defects have been observed in the material properties of various connective tissues. […]

[4] = tested on: rat osteoblast cells; experiment: Standard wounding / scratch migration assay; type: cell-based; conditions: dishes coated with plastic, collagen, or collagen plus titrating amounts of periostin; BMP-2 titrated; up to 48 hours
Experimental: Tissue culture dishes were coated with either collagen, or collagen with titrating amounts of periostin. Cells were plated and allowed to adhere for 24 hours. A standard “wounding” or “scratch assay” was performed and measurements of cell migration into the scratch area were obtained.
The ability of periostin to promote migration of osteoblast cells in culture was ascertained utilizing a standard “wounding” assay. For this, a monolayer of rat osteoblast cells was plated on either plastic, collagen or collagen plus titrating amounts of periostin. A small scratch was made (with a P200 tip) through the middle of the monolayer and the cells were allowed to migrate into the “wounded” area for up to 48 hours.

[5] = tested on: fibula osteotomy in the periostin null mouse; experiment: Fibula osteotomy model of bone fracture healing, X-ray analysis; type: in vivo; conditions: three weeks after fibula osteotomy, hydrogel delivery at the break point
Experimental: FIGS. 8A-C Periostin KO mice have defects in bone regeneration. X-ray analyses of bone healing three weeks after fibula osteotomies. […] (B,C) Fibula osteotomies were performed in the periostin null background and analyzed by X-ray three weeks later. In the absence of periostin there is no apparent callus formed and no fibula fusion (C).
To examine the role of periostin as a mediator of bone healing following injury, a novel in vivo murine fibula osteotomy model was developed (FIGS. 6A-B). The generation of this model system in the mouse has significant advantages over the more standard tibia and femur bone break models. Currently, the main disadvantage of the tibia and femur models is their necessity for an intermedullary stabilizer (i.e., metal rods) due to these bones being weight bearing. These rods make various analyses such microCT, MTS and histological examination either exceedingly difficult or totally impossible. Because the fibula is a non-weight bearing bone, intermedullary stabilization is not required. As such, analyses such as microCT, MTS and histology are more easily and reproducibly performed in the fibula osteotomy model. […]

[6] = tested on: fibroblasts; experiment: Collagen deposition by fibroblasts after periostin exposure; type: cell-based; conditions: following periostin exposure/incubation

Molecule | cell adhesion (binding) to peptide [1] | other results
HSRIRGRDQGPNVCALQQIL (listed as Mus musculus) [Peptide 2, murine periostin peptide] | significant binding | 
DQRLLKLILQNHILKVKVGL (listed as Mus musculus) [Peptide 28, murine periostin peptide] | significant binding | 
HSHMVNKRMLTKDLKHGMVI (listed as Mus musculus) [Peptide 11, murine periostin peptide] | significant binding | 
TIGGKQLRVFVYRTAICIEN (listed as Mus musculus) [Peptide 30, murine periostin peptide] | significant binding | 
RGLENNVNVELLNALHSHMV (listed as Mus musculus) [Peptide 10, murine periostin peptide] | significant binding | 
HGMVIPSMYNNLGLFINHYP (listed as Mus musculus) [Peptide 12, murine periostin peptide] | significant binding | 
IGCEGDSISINGIKMVNKKD (listed as Mus musculus) [Peptide 22, murine periostin peptide] | significant binding | 
B1 |  | fold-change in area of migration [2]: promoted migration
B2 |  | expression of collagen Ia1 and Ia2 [3]: induces expression of collagen Ia1 and Ia2; fold-change in area of migration [2]: highest degree of migration; cell migration into the scratch area [4]: highest degree of migration; also recorded: most potent stimulation of migration; bone healing (callus formation, fibula fusion) by X-ray [5]: “rescued” the null phenotype; also recorded: pronounced healing is evident; collagen deposition by fibroblasts [6]: increased in a dose-dependent manner
